Measurements taken from patent US9790169B2, “IDO inhibitors” (BRISTOL-MYERS SQUIBB COMPANY, priority 2015, dated 2017).
“And” between values parts separate entries of the source, which are not always exact repeats. Equal values may be shown once.

target: human IDO1 (Homo sapiens, UniProt P14902); assay: Assessment of human IDO-1 inhibitory activity in Hela cells (Interferon-gamma stimulated HeLa cells, Ehrlich reagent, absorbance 490 nm); type: cell-based; parameters: endogenous in cells; host or cells: HeLa cells stimulated with interferon-gamma; conditions: Hela Human IDO-1 cellular assay
Sequence (P14902 whole entry): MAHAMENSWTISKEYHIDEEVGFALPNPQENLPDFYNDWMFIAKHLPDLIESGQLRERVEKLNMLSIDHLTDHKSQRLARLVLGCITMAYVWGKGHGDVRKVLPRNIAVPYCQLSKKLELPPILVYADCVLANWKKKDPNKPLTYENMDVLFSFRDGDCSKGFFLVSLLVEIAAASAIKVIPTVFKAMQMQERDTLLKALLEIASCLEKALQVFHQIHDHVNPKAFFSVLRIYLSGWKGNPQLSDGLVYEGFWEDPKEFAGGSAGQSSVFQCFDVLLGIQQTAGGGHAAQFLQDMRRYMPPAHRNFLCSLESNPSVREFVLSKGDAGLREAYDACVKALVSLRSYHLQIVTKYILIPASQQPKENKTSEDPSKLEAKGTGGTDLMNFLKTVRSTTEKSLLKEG
How it was run: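 HeLa cells pre-incubated with compound 1 h at 37 °C, then stimulated with human IFN-γ (10 ng/ml final) or murine IFN-γ (5 ng/ml final) for 18 h. Kynurenine read with Ehrlich reagent at 490 nm after TCA (3%) and 50 °C treatment; IC50 normalized to unstimulated (100%) and IFN-γ-only (0%) wells.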

`CC[C@@H](CC(=O)O)c1ccc(N(CC)C2CCOCC2)c(Nc2ccc(OC)cn2)c1` (single isomer, unassigned) [Example 462] and `CCOc1ncc(Nc2cc([C@H](CC)CC(O)C(F)(F)F)ccc2N(CC)C2CCOCC2)cn1` (single isomer, unassigned) [Example 1336 D1] cannot be ordered by IC50: under 5 nM for the first, under 50 nM for the second.

First: CCN(c1ccc(C(CC)(CC)CC(=O)O)cc1NC(=O)Nc1ccc(C)cc1)C1CCOCC1 [Example 30, 3-Ethyl-3-(4-(ethyl(tetrahydro-2H-pyran-4-yl)amino)-3-(3-(p-tolyl)ureido)phenyl)pentanoic acid]
Second: CCN(c1ccc([C@@H](COC)CC(=O)O)cc1Nc1ccccc1C#N)C1CCOCC1 (single isomer, unassigned) [Example 369]
The IC50 of the first is lower: under 50 nM for the first, over 50 nM for the second. The first is the more potent here.

`CCCN(c1ccc([C@H](COC)CC(=O)O)cc1Nc1ccc(OC)nc1)C1CCOCC1` (single isomer, unassigned) [Example 575] and `CCCN(c1ccc(C(COC)CC(=O)O)cc1Nc1ccc2c(c1)OC(F)(F)O2)C1CCOCC1` (single isomer, unassigned) [Example 571, 3-(3-((2,2-difluorobenzo[d][1,3]dioxol-5-yl)amino)-4-(propyl (tetrahydro-2H-pyran-4-yl)amino)phenyl)-4-methoxybutanoic acid] cannot be ordered by IC50: under 50 nM for the first, under 5 nM for the second.

Going from `CCN(c1ccc(C(CC(=O)O)C2CC2)cc1Nc1ccc(F)cc1)C1CCS(=O)(=O)CC1` (single isomer, unassigned) [Example 343, 3-cyclopropyl-3-(4-((1,1-dioxidotetrahydro-2H-thiopyran-4-yl)(ethyl)amino)-3-((4-fluorophenyl)amino)phenyl) propanoic acid] to `COCCN(c1ccc(C(COC)CC(=O)O)cc1NC(=O)Nc1ccc(Cl)cc1F)C1CCOCC1` (single isomer, unassigned) [Example 262, 3-(3-(3-(4-chloro-2-fluorophenyl)ureido)-4-((2-methoxyethyl)(tetrahydro-2H-pyran-4-yl)amino)phenyl)-4-methoxybutanoic acid], the IC50 rises from under 5 nM to over 50 nM. The first is the more potent here.

First: COCC(CC(=O)O)c1ccc(N(C)C2CCOCC2)c(Nc2ccc(Cl)cc2)c1 (single isomer, unassigned) [Example 877, 3-(3-((4-chlorophenyl)amino)-4-(methyl(tetrahydro-2H-pyran-4-yl)amino)phenyl)-4-methoxybutanoic acid]
Second: CCCN(c1ccc([C@@H](COC)CC(=O)O)cc1Nc1ccc(OC)nc1)C1CCOCC1 (single isomer, unassigned) [Example 565]
The IC50 of the first is higher: over 50 nM for the first, under 50 nM for the second. The second is the more potent here.

`CCN(c1cc(F)c(C(COC)CC(=O)O)cc1Nc1ccc(C#N)cc1F)C1CCOCC1` (single isomer, unassigned) [Example 847, 3-(5-((4-cyano-2-fluorophenyl)amino)-4-(ethyl (tetrahydro-2H-pyran-4-yl)amino)-2-fluorophenyl)-4-methoxybutanoic acid] and `CCN(c1ccc([C@@H](COC)CC(=O)O)cc1Nc1ccc(C#N)c(Cl)c1)C1CCOCC1` (single isomer, unassigned) [Example 381] cannot be ordered by IC50: under 5 nM for the first, under 50 nM for the second.

`CCN(c1ccc(C(CC(=O)O)C2CC2)cc1NC(=O)Nc1ccc(C)cc1)C1CCOCC1` (single isomer, unassigned) [Example 40 Enantiomer 2, 3-Cyclopropyl-3-(4-(ethyl(tetrahydro-2H-pyran-4-yl)amino)-3-(3-(p-tolyl)ureido)phenyl)propanoic acid] and `CCC(CC(=O)O)c1ccc(N(CC)C2CCCOC2)c(Nc2cnc(OC)nc2)c1` (single isomer, unassigned) [Example 68, 3-(4-(ethyl(tetrahydro-2H-pyran-3-yl)amino)-3-((2-methoxypyrimidin-5-yl)amino)phenyl)pentanoic acid] cannot be ordered by IC50: under 50 nM for the first, under 50 nM for the second.

`CCN(c1ccc([C@@H](COC)CC(=O)O)cc1Nc1ncc(Cl)cn1)C1CCOCC1` (single isomer, unassigned) [Example 357] and `CCN(c1ccc([C@@H](COC)CC(=O)O)cc1Nc1ccc(C#N)cc1F)C1CCOCC1` (single isomer, unassigned) [Example 355] cannot be ordered by IC50: under 50 nM for the first, under 5 nM for the second.

Going from `CC[C@H](CC(=O)O)c1ccc(N(CC)C2CCOCC2)c(Nc2cnc(N(C)C)nc2)c1` (single isomer, unassigned) [Example 502] to `COCC(CC(=O)O)c1ccc(NC2CCOCC2)c(Nc2ccc(C#N)cc2)c1` (single isomer, unassigned) [Example 928 E1, 3-(3-((4-Cyanophenyl)amino)-4-((tetrahydro-2H-pyran-4-yl)amino)phenyl)-4-methoxybutanoic acid], the IC50 rises from under 50 nM to over 50 nM. The first is the more potent here.

`CCOc1ncc(Nc2cc(C(COC)CC(=O)O)ccc2N2CCOC[C@@H]2C(C)C)cn1` (single isomer, unassigned) [Example 931] and `CCN(c1ccc([C@H](COC)CC(=O)O)cc1NC(=O)Nc1ccc(Cl)cc1Cl)C1CCOCC1` (single isomer, unassigned) [Example 441] cannot be ordered by IC50: over 50 nM for the first, over 50 nM for the second.

`COCCN(c1ccc(C(COC)CC(=O)O)cc1Nc1ccc(F)cc1)C1CCOCC1` (single isomer, unassigned) [Example 258, 3-(3-((4-fluorophenyl)amino)-4-((2-methoxyethyl)(tetrahydro-2H-pyran-4-yl)amino)phenyl)-4-methoxybutanoic acid] and `CCCN(c1ccc([C@H](CC)CC(=O)O)cc1NC(=O)Nc1ccc(C#N)cc1)C1CCOCC1` (single isomer, unassigned) [Example 556] cannot be ordered by IC50: under 50 nM for the first, under 50 nM for the second.

First: COCC(CC(=O)O)c1ccc(N(C)C2CCOCC2)c(NC(=O)Nc2ccc(Cl)cc2F)c1 (single isomer, unassigned) [Example 886, 3-(3-(3-(4-Chloro-2-fluorophenyl)ureido)-4-(methyl(tetrahydro-2H-pyran-4-yl)amino)phenyl)-4-methoxybutanoic acid]
Second: CCC(CC(=O)O)c1cc(Nc2ccc(C#N)cn2)c(N(CC)C2CCOCC2)cc1F (single isomer, unassigned) [Example 862, 3-(5-((5-cyanopyridin-2-yl)amino)-4-(ethyl (tetrahydro-2H-pyran-4-yl)amino)-2-fluorophenyl) pentanoic acid]
The IC50 of the first is higher: over 50 nM for the first, under 5 nM for the second. The second is the more potent here.

First: C[C@@H]1CN(c2ccc(C(CC(=O)O)C3CC3)cc2NC(=O)Nc2ccc(Cl)cc2F)C[C@H](C)O1 (single isomer, unassigned) [Example 252]
Second: CCOc1ncc(Nc2cc(C(CC(=O)O)C3CC3)ccc2N(CC)C2CCOCC2)cn1 (single isomer, unassigned) [Example 36, 3-cyclopropyl-3-(3-((2-ethoxypyrimidin-5-yl)amino)-4-(ethyl(tetrahydro-2H-pyran-4-yl)amino)phenyl)propanoic acid]
The IC50 of the first is higher: over 50 nM for the first, under 50 nM for the second.

`CCC(CC(=O)O)c1ccc(N(C)C2CCOCC2)c(Nc2ccc(C#N)cc2)c1` (single isomer, unassigned) [Example 870, 3-(3-((4-Cyanophenyl)amino)-4-(methyl(tetrahydro-2H-pyran-4-yl)amino)phenyl)pentanoic acid] and `CCOc1ncc(Nc2cc(C(CC)CC(=O)O)c(F)cc2N(CC)C2CCOCC2)cn1` (single isomer, unassigned) [Example 860, 3-(5-((2-ethoxy-pyrimidin-5-yl)amino)-4-(ethyl(tetra-hydro-2H-pyran-4-yl)amino)-2-fluorophenyl) pentanoic acid] cannot be ordered by IC50: under 5 nM for the first, under 5 nM for the second.

`CCC(CC(=O)O)c1cc(F)c(N(CC)C2CCOCC2)c(Nc2ccc(C#N)cn2)c1` (single isomer, unassigned) [Example 138, 3-(3-((5-cyanopyridin-2-yl)amino)-4-(ethyl (tetrahydro-2H-pyran-4-yl)amino)-5-fluorophenyl) pentanoic acid] and “(R)-3-(3-((4-chlorophenyl)amino)-4-((1,1-dioxidotetrahydro-2H- thiopyran-4-yl)(ethyl)amino) phenyl)-4-isopropoxybutanoic acid [Example 330]” cannot be ordered by IC50: under 5 nM for the first, under 5 nM for the second.

Compared with `CC[C@@H](CC(=O)O)c1ccc(N(CC)C2CCOCC2)c(Nc2ccc(C#N)cn2)c1` (single isomer, unassigned) [Example 461], `COCC(CC(=O)O)c1ccc(N2CCOC[C@@H]2C(C)C)c(NC(=O)Nc2ccc(C#N)cc2)c1` (single isomer, unassigned) [Example 932] is higher in IC50: under 5 nM for the first, over 50 nM for the second. The first is the more potent here.

First: COCC(CC(=O)O)c1ccc(N2C[C@@H](C)O[C@@H](C)C2)c(NC(=O)Nc2ccc(C#N)cc2)c1 (single isomer, unassigned) [Example 605 Diastereomer 1]
Second: CCN(c1ccc(C(C)CC(=O)O)cc1Nc1cnc(OCC2CC2)nc1)C1CCOCC1 (single isomer, unassigned) [Example 626, 3-(3-((2-(cyclopropylmethoxy)pyrimidin-5-yl)amino)-4-(ethyl(tetrahydro-2H-pyran-4-yl)amino)phenyl)butanoic acid]
The IC50 of the first is higher: over 50 nM for the first, under 50 nM for the second.

First: CCN(c1ccc([C@@H](COC)CC(=O)O)cc1Nc1cc(C)c(C#N)cn1)C1CCOCC1 (single isomer, unassigned) [Example 384]
Second: CCC(CC(=O)O)c1cc(F)c(N(CC)C2CCOCC2)c(Nc2cnc(OC)nc2)c1 (single isomer, unassigned) [Example 135, 3-(4-(ethyl(tetrahydro-2H-pyran-4-yl)amino)-3-fluoro-5-((2-methoxypyrimidin-5-yl)amino)phenyl) pentanoic acid]
The IC50 of the first is higher: over 50 nM for the first, under 50 nM for the second. The second is the more potent here.

With `CCCN(c1ccc([C@@H](COC)CC(=O)O)cc1Nc1ccc(C#N)cc1)C1CCOCC1` (single isomer, unassigned) [Example 558] the IC50 was under 5 nM.

In the case of `CCC(CC(=O)O)c1ccc(N2CCOC(C)(C)C2)c(Nc2ccc(C#N)cc2)c1` (single isomer, unassigned) [Example 1320, 3-(3-((4-cyanophenyl)amino)-4-(2,2-dimethylmorpholino)phenyl)pentanoic acid], the IC50 is reported as > 50 nM and < 50 nM.
